Experimental data from article PMC5490255, “Minute Impurities Contribute Significantly to Olfactory Receptor Ligand Studies: Tales from Testing the Vibration Theory” (eNeuro, 2017).

Columns and labels:
[1] = molecular target: T1, Or42b (dOr42b) (Drosophila melanogaster, UniProt Q9V9I4); experiment: GC-coupled antennal calcium imaging (GCaMP6m) of Or42b neurons, single dose; settings: agonist, 10^-2 dilution
T1 construct: native receptor in Or42b olfactory sensory neurons of living female flies (Or42b-Gal4 > UAS-GCaMP6m); calcium imaging of antenna or glomerulus DM1; endogenous Orco; with Odorant receptor coreceptor
T1 sequence (Q9V9I4 1-399): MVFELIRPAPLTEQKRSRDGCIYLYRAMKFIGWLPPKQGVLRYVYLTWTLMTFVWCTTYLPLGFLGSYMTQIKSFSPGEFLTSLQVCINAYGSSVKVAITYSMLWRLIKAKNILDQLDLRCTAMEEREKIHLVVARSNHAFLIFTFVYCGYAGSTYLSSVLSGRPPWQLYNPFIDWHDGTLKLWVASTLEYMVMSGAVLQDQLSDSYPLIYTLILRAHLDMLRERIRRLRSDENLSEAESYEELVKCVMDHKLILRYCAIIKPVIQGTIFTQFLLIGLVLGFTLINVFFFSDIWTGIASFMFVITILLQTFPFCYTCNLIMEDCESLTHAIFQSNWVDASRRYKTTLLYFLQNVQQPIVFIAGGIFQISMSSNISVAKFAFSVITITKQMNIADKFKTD
T1 sequence (Q9VNB5 1-486 partner): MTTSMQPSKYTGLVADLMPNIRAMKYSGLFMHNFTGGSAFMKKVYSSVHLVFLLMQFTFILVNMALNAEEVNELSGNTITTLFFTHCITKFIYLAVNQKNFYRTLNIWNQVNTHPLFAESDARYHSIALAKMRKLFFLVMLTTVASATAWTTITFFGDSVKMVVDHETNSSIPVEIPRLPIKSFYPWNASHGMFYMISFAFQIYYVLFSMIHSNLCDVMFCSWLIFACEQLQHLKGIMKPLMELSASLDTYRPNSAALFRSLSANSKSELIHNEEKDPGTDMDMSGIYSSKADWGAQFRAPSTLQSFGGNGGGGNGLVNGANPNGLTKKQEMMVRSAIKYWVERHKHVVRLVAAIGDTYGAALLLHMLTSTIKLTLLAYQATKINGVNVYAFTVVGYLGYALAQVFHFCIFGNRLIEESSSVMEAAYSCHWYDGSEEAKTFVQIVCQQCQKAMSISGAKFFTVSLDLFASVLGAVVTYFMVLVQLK

[2] = molecular target: T1, Or42b (dOr42b); experiment: GC-coupled calcium imaging (GCaMP6m) of Or42b neurons; settings: inhibitory (calcium decrease) at own elution time, direct receptor action not separately proven
[3] = GC-purified eluate of headspace

CCOC(=O)C[C@H](C)O [ethyl (S)-(+)-3-hydroxybutyrate]
GC-coupled antennal calcium imaging (GCaMP6m) of Or42b neurons, single dose [1, 3]: ethyl propionate, propyl acetate, and ethyl (S)-(+)-3-hydroxybutyrate all elicited responses that decayed slowly

CCOC(=O)CC [ethyl propionate]
GC-coupled antennal calcium imaging (GCaMP6m) of Or42b neurons, single dose [1, 3]: ethyl propionate, propyl acetate, and ethyl (S)-(+)-3-hydroxybutyrate all elicited responses that decayed slowly

O=Cc1ccccc1 [benzaldehyde-d5]
GC-coupled calcium imaging (GCaMP6m) of Or42b neurons ([2]; 10^-2 and 10^-1 dilution, deuterated compound, excitation without GC due to ethyl acetate impurity): response to either benzaldehyde-h or benzaldehyde-d5 was inhibitory at the elution time of benzaldehyde

O=Cc1ccccc1 [benzaldehyde-h]
GC-coupled calcium imaging (GCaMP6m) of Or42b neurons ([2]; 10^-2 dilution): response to either benzaldehyde-h or benzaldehyde-d5 was inhibitory at the elution time of benzaldehyde

CCCC(=O)OCC [ethyl butyrate]
GC-coupled antennal calcium imaging (GCaMP6m) of Or42b neurons, single dose ([1]; GC-purified, own elution peak (sample also held other active impurities)): unknown, and one corresponding to ethyl butyrate itself

CCCOC(C)=O [propyl acetate]
GC-coupled antennal calcium imaging (GCaMP6m) of Or42b neurons, single dose [1, 3]: ethyl propionate, propyl acetate, and ethyl (S)-(+)-3-hydroxybutyrate all elicited responses that decayed slowly
